Key:
Assay in all cases: Test F pre-/postemergence plant response
Assay type in all cases: in vivo
Settings in all cases: scale 0 to 100
[1] = test system: morningglory (Ipomoea coccinea)
How it was run: (§1)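 Visual control ratings were scored 0 (no effect) to 100 (complete control) versus untreated plants after 14–21 greenhouse days. Compounds, formulated in a surfactant-containing non-phytotoxic solvent, were applied both to silt loam at planting (preemergence) and to 1- to 4-leaf plants 2–18 cm tall (postemergence).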

[2] = test system: johnsongrass (Sorghum halepense)
How it was run: as §1

[3] = test system: lambsquarters (Chenopodium album)
How it was run: as §1

[4] = test system: wild poinsettia (Euphorbia heterophylla)
How it was run: as §1

[5] = test system: kochia (Kochia scoparia)
How it was run: as §1

[6] = test system: surinam grass (Brachiaria decumbens)
How it was run: as §1

[7] = test system: green foxtail (Setaria viridis)
How it was run: as §1

[8] = test system: soybean (Glycine max)
How it was run: as §1

[9] = test system: ragweed (common ragweed, Ambrosia elatior)
How it was run: as §1

[10] = test system: dayflower (Virginia (VA) dayflower, Commelina virginica)
How it was run: as §1

[11] = test system: giant foxtail (Setaria faberii)
How it was run: as §1

[12] = test system: large (Lg) crabgrass (Digitaria sanguinalis)
How it was run: as §1

[13] = test system: barnyardgrass (Echinochloa crus-galli)
How it was run: as §1

[14] = test system: yellow nutsedge (Cyperus esculentus)
How it was run: as §1

[15] = test system: Italian ryegrass (Lolium multiflorum)
How it was run: as §1

[16] = test system: field bindweed (Convolvulus arvensis)
How it was run: as §1

[17] = test system: waterhemp (common waterhemp, Amaranthus rudis)
How it was run: as §1

Cc1cc(-c2ccccc2Oc2ncc(Cl)cn2)on1 [Compound 58] was tested, and the “Plant response rating, Morningglory” value ([1]; 8 g ai/ha Preemergence) was 0, the “Plant response rating, Morningglory” value ([1]; 16 g ai/ha Preemergence) was 0 and the “Plant response rating, Morningglory” value ([1]; 31 g ai/ha Preemergence) was 10. For the same compound, the “Plant response rating, Morningglory” value ([1]; 125 g ai/ha Preemergence) was 10, the “Plant response rating, Morningglory” value ([1]; Preemergence) was 10 and the “Plant response rating, Johnsongrass” value ([2]; 8 g ai/ha Preemergence) was 0. The “Plant response rating, Johnsongrass” value ([2]; 16 g ai/ha Preemergence) was 0, the “Plant response rating, Johnsongrass” value ([2]; 31 g ai/ha Preemergence) was 0 and the “Plant response rating, Johnsongrass” value ([2]; 125 g ai/ha Preemergence) was 20. The “Plant response rating, Johnsongrass” value ([2]; Preemergence) was 0, the “Plant response rating, Lambsquarters” value ([3]; 16 g ai/ha Preemergence) was 0 and the “Plant response rating, Lambsquarters” value ([3]; 31 g ai/ha Preemergence) was 65. The “Plant response rating, Lambsquarters” value ([3]; 125 g ai/ha Preemergence) was 100, the “Plant response rating, Lambsquarters” value ([3]; Preemergence) was 90 and the “Plant response rating, Poinsettia, Wild” value ([4]; 8 g ai/ha Postemergence) was 30. The “Plant response rating, Poinsettia, Wild” value ([4]; 8 g ai/ha Preemergence) was 0, the “Plant response rating, Poinsettia, Wild” value ([4]; 16 g ai/ha Postemergence) was 30 and the “Plant response rating, Poinsettia, Wild” value ([4]; 16 g ai/ha Preemergence) was 0. For the same compound, the “Plant response rating, Poinsettia, Wild” value ([4]; 31 g ai/ha Postemergence) was 60, the “Plant response rating, Poinsettia, Wild” value ([4]; 31 g ai/ha Preemergence) was 20 and the “Plant response rating, Poinsettia, Wild” value ([4]; 62 g ai/ha Postemergence) was 50. The “Plant response rating, Poinsettia, Wild” value ([4]; 125 g ai/ha Postemergence) was 60, the “Plant response rating, Poinsettia, Wild” value ([4]; 125 g ai/ha Preemergence) was 20 and the “Plant response rating, Poinsettia, Wild” value ([4]; Preemergence) was 20. For the same compound, the “Plant response rating, Kochia” value ([5]; 8 g ai/ha Postemergence) was 30, the “Plant response rating, Kochia” value ([5]; 8 g ai/ha Preemergence) was 0 and the “Plant response rating, Kochia” value ([5]; 16 g ai/ha Postemergence) was 40. For the same compound, the “Plant response rating, Kochia” value ([5]; 16 g ai/ha Preemergence) was 0, the “Plant response rating, Kochia” value ([5]; 31 g ai/ha Postemergence) was 30 and the “Plant response rating, Kochia” value ([5]; 31 g ai/ha Preemergence) was 0. The “Plant response rating, Kochia” value ([5]; 62 g ai/ha Postemergence) was 60, the “Plant response rating, Kochia” value ([5]; 125 g ai/ha Postemergence) was 75 and the “Plant response rating, Kochia” value ([5]; 125 g ai/ha Preemergence) was 30. For the same compound, the “Plant response rating, Kochia” value ([5]; Preemergence) was 0, the “Plant response rating, Surinam Grass” value ([6]; 8 g ai/ha Preemergence) was 0 and the “Plant response rating, Surinam Grass” value ([6]; 16 g ai/ha Preemergence) was 0. The “Plant response rating, Surinam Grass” value ([6]; 31 g ai/ha Preemergence) was 0, the “Plant response rating, Surinam Grass” value ([6]; 125 g ai/ha Preemergence) was 0 and the “Plant response rating, Surinam Grass” value ([6]; Preemergence) was 0. For the same compound, the “Plant response rating, Foxtail, Green” value ([7]; 8 g ai/ha Preemergence) was 0, the “Plant response rating, Foxtail, Green” value ([7]; 16 g ai/ha Preemergence) was 0 and the “Plant response rating, Foxtail, Green” value ([7]; 31 g ai/ha Preemergence) was 0. The “Plant response rating, Foxtail, Green” value ([7]; 125 g ai/ha Preemergence) was 25, the “Plant response rating, Foxtail, Green” value ([7]; Preemergence) was 0 and the “Plant response rating, Soybean” value ([8]; 8 g ai/ha Postemergence) was 50. The “Plant response rating, Soybean” value ([8]; 8 g ai/ha Preemergence) was 0, the “Plant response rating, Soybean” value ([8]; 16 g ai/ha Postemergence) was 50 and the “Plant response rating, Soybean” value ([8]; 16 g ai/ha Preemergence) was 10. The “Plant response rating, Soybean” value ([8]; 31 g ai/ha Postemergence) was 70, the “Plant response rating, Soybean” value ([8]; 31 g ai/ha Preemergence) was 20 and the “Plant response rating, Soybean” value ([8]; 62 g ai/ha Postemergence) was 90. The “Plant response rating, Soybean” value ([8]; 125 g ai/ha Postemergence) was 95, the “Plant response rating, Soybean” value ([8]; 125 g ai/ha Preemergence) was 75 and the “Plant response rating, Soybean” value ([8]; Preemergence) was 35. The “Plant response rating, Ragweed” value ([9]; 8 g ai/ha Preemergence) was 0, the “Plant response rating, Ragweed” value ([9]; 16 g ai/ha Preemergence) was 0 and the “Plant response rating, Ragweed” value ([9]; 31 g ai/ha Preemergence) was 0. The “Plant response rating, Ragweed” value ([9]; 125 g ai/ha Preemergence) was 75, the “Plant response rating, Ragweed” value ([9]; Preemergence) was 25 and the “Plant response rating, Dayflower, VA” value ([10]; 8 g ai/ha Postemergence) was 5. For the same compound, the “Plant response rating, Dayflower, VA” value ([10]; 8 g ai/ha Preemergence) was 0, the “Plant response rating, Dayflower, VA” value ([10]; 16 g ai/ha Postemergence) was 5 and the “Plant response rating, Dayflower, VA” value ([10]; 16 g ai/ha Preemergence) was 0. For the same compound, the “Plant response rating, Dayflower, VA” value ([10]; 31 g ai/ha Postemergence) was 10, the “Plant response rating, Dayflower, VA” value ([10]; 31 g ai/ha Preemergence) was 0 and the “Plant response rating, Dayflower, VA” value ([10]; 62 g ai/ha Postemergence) was 20. The “Plant response rating, Dayflower, VA” value ([10]; 125 g ai/ha Postemergence) was 10, the “Plant response rating, Dayflower, VA” value ([10]; 125 g ai/ha Preemergence) was 80 and the “Plant response rating, Foxtail, Giant” value ([11]; 8 g ai/ha Preemergence) was 0. For the same compound, the “Plant response rating, Foxtail, Giant” value ([11]; 16 g ai/ha Preemergence) was 0, the “Plant response rating, Foxtail, Giant” value ([11]; 31 g ai/ha Preemergence) was 0 and the “Plant response rating, Foxtail, Giant” value ([11]; 62 g ai/ha Preemergence) was 0. The “Plant response rating, Foxtail, Giant” value ([11]; 125 g ai/ha Preemergence) was 40, the “Plant response rating, Crabgrass, Large” value ([12]; 8 g ai/ha Preemergence) was 0 and the “Plant response rating, Crabgrass, Large” value ([12]; 16 g ai/ha Preemergence) was 20. The “Plant response rating, Crabgrass, Large” value ([12]; 31 g ai/ha Preemergence) was 50, the “Plant response rating, Crabgrass, Large” value ([12]; 62 g ai/ha Preemergence) was 65 and the “Plant response rating, Crabgrass, Large” value ([12]; 125 g ai/ha Preemergence) was 80. For the same compound, the “Plant response rating, Barnyardgrass” value ([13]; 8 g ai/ha Postemergence) was 0, the “Plant response rating, Barnyardgrass” value ([13]; 8 g ai/ha Preemergence) was 0 and the “Plant response rating, Barnyardgrass” value ([13]; 16 g ai/ha Postemergence) was 0. For the same compound, the “Plant response rating, Barnyardgrass” value ([13]; 16 g ai/ha Preemergence) was 0, the “Plant response rating, Barnyardgrass” value ([13]; 31 g ai/ha Postemergence) was 0 and the “Plant response rating, Barnyardgrass” value ([13]; 31 g ai/ha Preemergence) was 0. For the same compound, the “Plant response rating, Barnyardgrass” value ([13]; 62 g ai/ha Postemergence) was 0, the “Plant response rating, Barnyardgrass” value ([13]; 62 g ai/ha Preemergence) was 0 and the “Plant response rating, Barnyardgrass” value ([13]; 125 g ai/ha Postemergence) was 5. The “Plant response rating, Barnyardgrass” value ([13]; 125 g ai/ha Preemergence) was 15, the “Plant response rating, Nutsedge, Yellow” value ([14]; 8 g ai/ha Preemergence) was 0 and the “Plant response rating, Nutsedge, Yellow” value ([14]; 16 g ai/ha Preemergence) was 0. For the same compound, the “Plant response rating, Nutsedge, Yellow” value ([14]; 31 g ai/ha Preemergence) was 0, the “Plant response rating, Nutsedge, Yellow” value ([14]; 125 g ai/ha Preemergence) was 0 and the “Plant response rating, Nutsedge, Yellow” value ([14]; Preemergence) was 0. For the same compound, the “Plant response rating, Ryegrass, Italian” value ([15]; 8 g ai/ha Postemergence) was 0, the “Plant response rating, Ryegrass, Italian” value ([15]; 8 g ai/ha Preemergence) was 0 and the “Plant response rating, Ryegrass, Italian” value ([15]; 16 g ai/ha Postemergence) was 0. The “Plant response rating, Ryegrass, Italian” value ([15]; 16 g ai/ha Preemergence) was 0, the “Plant response rating, Ryegrass, Italian” value ([15]; 31 g ai/ha Postemergence) was 0 and the “Plant response rating, Ryegrass, Italian” value ([15]; 31 g ai/ha Preemergence) was 0. For the same compound, the “Plant response rating, Ryegrass, Italian” value ([15]; 62 g ai/ha Postemergence) was 0, the “Plant response rating, Ryegrass, Italian” value ([15]; 125 g ai/ha Postemergence) was 0 and the “Plant response rating, Ryegrass, Italian” value ([15]; 125 g ai/ha Preemergence) was 0. For the same compound, the “Plant response rating, Ryegrass, Italian” value ([15]; Preemergence) was 0, the “Plant response rating, Field Bindweed” value ([16]; 8 g ai/ha Postemergence) was 10 and the “Plant response rating, Field Bindweed” value ([16]; 8 g ai/ha Preemergence) was 0. For the same compound, the “Plant response rating, Field Bindweed” value ([16]; 16 g ai/ha Postemergence) was 10, the “Plant response rating, Field Bindweed” value ([16]; 16 g ai/ha Preemergence) was 0 and the “Plant response rating, Field Bindweed” value ([16]; 31 g ai/ha Postemergence) was 20. For the same compound, the “Plant response rating, Field Bindweed” value ([16]; 31 g ai/ha Preemergence) was 0, the “Plant response rating, Field Bindweed” value ([16]; 62 g ai/ha Postemergence) was 30 and the “Plant response rating, Field Bindweed” value ([16]; 62 g ai/ha Preemergence) was 0. The “Plant response rating, Field Bindweed” value ([16]; 125 g ai/ha Postemergence) was 50, the “Plant response rating, Field Bindweed” value ([16]; 125 g ai/ha Preemergence) was 0 and the “Plant response rating, Waterhemp” value ([17]; 8 g ai/ha Postemergence) was 65. The “Plant response rating, Waterhemp” value ([17]; 8 g ai/ha Preemergence) was 20, the “Plant response rating, Waterhemp” value ([17]; 16 g ai/ha Postemergence) was 60 and the “Plant response rating, Waterhemp” value ([17]; 16 g ai/ha Preemergence) was 75. The “Plant response rating, Waterhemp” value ([17]; 31 g ai/ha Postemergence) was 65, the “Plant response rating, Waterhemp” value ([17]; 31 g ai/ha Preemergence) was 75 and the “Plant response rating, Waterhemp” value ([17]; 62 g ai/ha Postemergence) was 80. The “Plant response rating, Waterhemp” value ([17]; 125 g ai/ha Postemergence) was 90, the “Plant response rating, Waterhemp” value ([17]; 125 g ai/ha Preemergence) was 100 and the “Plant response rating, Waterhemp” value ([17]; Preemergence) was 90.

— patent US10131652B2, “Pyrimidinyloxy benzene derivatives as herbicides” (E. I. DU PONT DE NEMOURS AND COMPANY, priority 2014, dated 2018)
